Test results published in patent US11178873B2, “Cyclic N-carboxamide compounds useful as herbicides” (FMC CORPORATION, priority 2015, dated 2021).

Legend:
Assay type in all cases: in vivo
corn (Zea mays) [1] = assay: Test A preemergence, corn; conditions: 0 to 100 scale, 0 no effect, 100 complete control
From the text: (§1) Seeds of plant species selected from barnyardgrass (Echinochloa crus-galli), crabgrass, large (large crabgrass, Digitaria sanguinalis), kochia (Kochia scoparia), ragweed (common ragweed, Ambrosia elatior), morningglory (Ipomoea spp.), velvetleaf (Abutilon theophrasti), ryegrass, Italian (Italian ryegrass, Lolium multiflorum), foxtail, giant (giant foxtail, Setaria faberii), wheat (Triticum aestivum), corn (Zea mays), and pigweed (Amaranthus retroflexus), were planted into a blend of loam soil and sand and treated preemergence with a directed soil spray using test chemicals formulated in a non-phytotoxic solvent mixture which included a surfactant. At the same time, plants selected from these crop and weed species and also blackgrass (Alopecurus myosuroides), and galium (catchweed bedstraw, Galium aparine), were planted in pots containing the same blend of loam soil and sand and treated with postemergence applications of test chemicals formulated in the same manner. Plants ranged in height from 2 to 10 cm and were in the one- to two-leaf stage for the postemergence treatment. Treated plants and untreated controls were maintained in a greenhouse for approximately 10 d, after which time all treated plants were compared to untreated controls and visually evaluated for injury. Plant response ratings, summarized in Table A, are based on a 0 to 100 scale where 0 is no effect and 100 is complete control. A dash (-) response means no test result.

[2] = test system: ducksalad (Heteranthera limosa); assay: Test B flooded paddy test, ducksalad; conditions: Flood, 250 g ai/ha; scale 0 to 100 (0 no effect, 100 complete control); 13 to 15 d
In short: (§2)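 Plants grown to the 2-leaf stage. At treatment, pots were flooded to 3 cm above the soil, compound was applied directly to the paddy water, and that depth was held throughout. After 13 to 15 d in the greenhouse, response was rated visually against controls on a 0 (no effect) to 100 (complete control) scale.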

[3] = test system: pigweed (Amaranthus retroflexus); assay: Test A preemergence, pigweed; conditions: 0 to 100 scale, 0 no effect, 100 complete control
In short: (§3)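 Seeds sown in loam soil–sand blend received a directed preemergence soil spray of test chemical in non-phytotoxic solvent with surfactant; postemergence sprays went onto plants 2 to 10 cm tall at one- to two-leaf stage. After about 10 d in greenhouse, injury was rated visually against untreated controls, 0 (no effect) to 100 (complete control).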

[4] = test system: crabgrass, large (large crabgrass, Digitaria sanguinalis); assay: Test A postemergence, crabgrass, large; conditions: 0 to 100 scale, 0 no effect, 100 complete control
From the text: as §1

[5] = test system: sedge, umbrella (small-flower umbrella sedge, Cyperus difformis); assay: Test B flooded paddy test, sedge, umbrella; conditions: Flood, 250 g ai/ha; scale 0 to 100 (0 no effect, 100 complete control); 13 to 15 d
In short: as §2

[6] = test system: barnyardgrass (Echinochloa crus-galli); assay: Test A preemergence, barnyardgrass; conditions: 0 to 100 scale, 0 no effect, 100 complete control
In short: as §3

rice (Oryza sativa) = assay: Test B flooded paddy test, rice; conditions: Flood, 250 g ai/ha; scale 0 to 100 (0 no effect, 100 complete control); 13 to 15 d
In short: as §2

[7] = test system: morningglory (Ipomoea spp.); assay: Test A postemergence, morningglory; conditions: 0 to 100 scale, 0 no effect, 100 complete control
From the text: as §1

[8] = test system: morningglory (Ipomoea spp.); assay: Test A preemergence, morningglory; conditions: 0 to 100 scale, 0 no effect, 100 complete control
From the text: as §1

[9] = test system: wheat (Triticum aestivum); assay: Test A postemergence, wheat; conditions: 0 to 100 scale, 0 no effect, 100 complete control
In short: as §3

[10] = test system: pigweed (Amaranthus retroflexus); assay: Test A postemergence, pigweed; conditions: 0 to 100 scale, 0 no effect, 100 complete control
In short: as §3

[11] = test system: foxtail, giant (giant foxtail, Setaria faberii); assay: Test A postemergence, foxtail, giant; conditions: 0 to 100 scale, 0 no effect, 100 complete control
In short: as §3

[12] = test system: velvetleaf (Abutilon theophrasti); assay: Test A preemergence, velvetleaf; conditions: 0 to 100 scale, 0 no effect, 100 complete control
From the text: as §1

[13] = test system: barnyardgrass (Echinochloa crus-galli); assay: Test B flooded paddy test, barnyardgrass; conditions: Flood, 250 g ai/ha; scale 0 to 100 (0 no effect, 100 complete control); 13 to 15 d
In short: as §2

[14] = test system: barnyardgrass (Echinochloa crus-galli); assay: Test A postemergence, barnyardgrass; conditions: 0 to 100 scale, 0 no effect, 100 complete control
In short: as §3

[15] = test system: wheat (Triticum aestivum); assay: Test A preemergence, wheat; conditions: 0 to 100 scale, 0 no effect, 100 complete control
From the text: as §1

[16] = test system: velvetleaf (Abutilon theophrasti); assay: Test A postemergence, velvetleaf; conditions: 0 to 100 scale, 0 no effect, 100 complete control
From the text: as §1

[17] = test system: crabgrass, large (large crabgrass, Digitaria sanguinalis); assay: Test A preemergence, crabgrass, large; conditions: 0 to 100 scale, 0 no effect, 100 complete control
From the text: as §1

[18] = test system: foxtail, giant (giant foxtail, Setaria faberii); assay: Test A preemergence, foxtail, giant; conditions: 0 to 100 scale, 0 no effect, 100 complete control
In short: as §3

corn (Zea mays) [19] = assay: Test A postemergence, corn; conditions: 0 to 100 scale, 0 no effect, 100 complete control
In short: as §3

Structure (SMILES)	Plant response rating, Corn (corn (Zea mays) [1]; 125 g ai/ha)	Plant response rating, Corn (corn (Zea mays) [1]; 500 g ai/ha)	Plant response rating, Ducksalad [2]	Plant response rating, Pigweed ([3]; 125 g ai/ha)	Plant response rating, Pigweed ([3]; 500 g ai/ha)	Plant response rating, Crabgrass, Large ([4]; 125 g ai/ha)	Plant response rating, Crabgrass, Large ([4]; 500 g ai/ha)	Plant response rating, Sedge, Umbrella [5]	Plant response rating, Barnyardgrass ([6]; 125 g ai/ha)	Plant response rating, Barnyardgrass ([6]; 500 g ai/ha)	Plant response rating, Rice (rice (Oryza sativa))	Plant response rating, Morningglory ([7]; 125 g ai/ha)	Plant response rating, Morningglory ([7]; 500 g ai/ha)	Plant response rating, Morningglory ([8]; 125 g ai/ha)	Plant response rating, Morningglory ([8]; 500 g ai/ha)	Plant response rating, Wheat ([9]; 125 g ai/ha)	Plant response rating, Wheat ([9]; 500 g ai/ha)	Plant response rating, Pigweed ([10]; 125 g ai/ha)	Plant response rating, Pigweed ([10]; 500 g ai/ha)	Plant response rating, Foxtail, Giant ([11]; 125 g ai/ha)	also measured
O=C(Nc1ccccc1Cl)N1C(=O)OCC1c1ccc(F)c(F)c1 (stereo not drawn) [Compound 2]	0	0	0	0	0	0	0	0	0	0	0	0	0	0	0	0	0	0	0	0	Plant response rating, Foxtail, Giant ([11]; 500 g ai/ha): 0; Plant response rating, Velvetleaf ([12]; 125 g ai/ha): 0; Plant response rating, Velvetleaf ([12]; 500 g ai/ha): 0; Plant response rating, Barnyardgrass [13]: 0; Plant response rating, Barnyardgrass ([14]; 125 g ai/ha): 0; Plant response rating, Barnyardgrass ([14]; 500 g ai/ha): 0; Plant response rating, Wheat ([15]; 125 g ai/ha): 0; Plant response rating, Wheat ([15]; 500 g ai/ha): 0; Plant response rating, Velvetleaf ([16]; 125 g ai/ha): 0; Plant response rating, Velvetleaf ([16]; 500 g ai/ha): 0; Plant response rating, Crabgrass, Large ([17]; 125 g ai/ha): 40; Plant response rating, Crabgrass, Large ([17]; 500 g ai/ha): 80; Plant response rating, Foxtail, Giant ([18]; 125 g ai/ha): 0; Plant response rating, Foxtail, Giant ([18]; 500 g ai/ha): 30; Plant response rating, Corn (corn (Zea mays) [19]; 125 g ai/ha): 0; Plant response rating, Corn (corn (Zea mays) [19]; 500 g ai/ha): 0
O=C(Nc1ccccc1F)N1C(=O)OCC1c1ccc(Cl)cc1 (stereo not drawn) [Compound 4]	0	0	0	0	0	0	0	0	0	0	0	0	0	0	0	0	0	0	0	0	Plant response rating, Foxtail, Giant ([11]; 500 g ai/ha): 0; Plant response rating, Velvetleaf ([12]; 125 g ai/ha): 0; Plant response rating, Velvetleaf ([12]; 500 g ai/ha): 0; Plant response rating, Barnyardgrass [13]: 0; Plant response rating, Barnyardgrass ([14]; 125 g ai/ha): 0; Plant response rating, Barnyardgrass ([14]; 500 g ai/ha): 0; Plant response rating, Wheat ([15]; 125 g ai/ha): 0; Plant response rating, Wheat ([15]; 500 g ai/ha): 0; Plant response rating, Velvetleaf ([16]; 125 g ai/ha): 0; Plant response rating, Velvetleaf ([16]; 500 g ai/ha): 0; Plant response rating, Crabgrass, Large ([17]; 125 g ai/ha): 0; Plant response rating, Crabgrass, Large ([17]; 500 g ai/ha): 20; Plant response rating, Foxtail, Giant ([18]; 125 g ai/ha): 0; Plant response rating, Foxtail, Giant ([18]; 500 g ai/ha): 0; Plant response rating, Corn (corn (Zea mays) [19]; 125 g ai/ha): 0; Plant response rating, Corn (corn (Zea mays) [19]; 500 g ai/ha): 0
